In US6610689B2, “HIV protease inhibitors based on amino acid derivatives” (priority 2001, dated 2003):
Counter-ions that a name gives are not always drawn. Like-named read-outs stand apart in the source and are kept apart here.

Target: T1, HIV protease (Human immunodeficiency virus type 1 group M subtype B, UniProt P04585)
T1 construct: A third viral enzyme known as protease then cleaves the polyproteins
Assay: Enzymatic Assay for Determining the Inhibition Constant (Ki) of Synthetic Compounds Targeting the HIV Protease (fluorometric FRET assay)
Format: biochemical
Method in brief: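 Fluorometric FRET assay following protease cleavage of an EDANS/DABCYL-labelled substrate. Initial velocities without (Vo) and with inhibitor (Vi) measured; Ki derived from the Henderson equation using inhibitor and substrate concentrations and Km.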

Compound	Ki [nM]	also measured
Cc1ccc(S(=O)(=O)N(CC(=O)NCCCC[C@@H](CO)N(CC(C)C)S(=O)(=O)c2ccc(C)cc2)Cc2ccccc2)cc1 [Example 159, (2S) 2-N-Isobutyl-2-N-(4-methylbenzenesulfonyl)-6-N-[N′α-benzyl-N′α-(4-methylbenzenesulfonyl)glycyl]-2,6-diaminohexanol]	101	–
Cc1ccc(S(=O)(=O)N(CC(C)C)[C@@H](CCCCNC(=O)CNCCN2CCCCC2)C(=O)O)cc1 [Example 110, Nα-Isobutyl-Nα-(4-methylbenzenesulfonyl)-Nε-[N′α-(piperidinyl-N-ethyl)glycyl]-L-lysine Trifluoroacetic Acid Salt]	–	Ki (Table 1, compounds of formula I, read-out: Ki (anti-protease activity)): > 300 nM
Cc1ccc(S(=O)(=O)N(CC(C)C)[C@@H](CCCCNC(=O)[C@@H](NC(=O)OC(C)(C)C)[C@@H](C)OCc2ccccc2)C(=O)O)cc1 [Example 84, Nα-Isobutyl-Nα-(4-methylbenzenesulfonyl)-Nε-(N′α-tert-butoxyearbonyl-O-benzyl-L-threonyl)-L-lysine]	163	–
Cc1ccc(CSC[C@H](N)C(=O)NCCCC[C@@H](C(=O)O)N(CC(C)C)S(=O)(=O)c2ccc(C)cc2)cc1 [Example 90, Nα-Isobutyl-Nα-(4-methylbenzenesulfonyl)-Nε-[S-(4-methylbenzyl)-L-cysteinyl]-L-lysine]	29	–
CC(C)CN([C@H](CO)CCCCNC(=O)[C@H](Cc1ccccc1)NC(=O)N1CCOCC1)S(=O)(=O)c1ccc(N)cc1 [Example 180, (2S,2′S) 2-N-(4-Aminobenzenesulfonyl)-2-N-isobutyl-6-N-[N′α-(4-morpholinecarbonyl)-S-phenylalanyl]-2,6-diaminohexanol]	2.4	–
Cc1ccc(S(=O)(=O)N(CC(C)C)[C@@H](CCCCNC(=O)[C@H](Cc2ccccc2)N(C)C(=O)OC(C)(C)C)C(=O)O)cc1 [Example 81, Nα-Isobutyl-Nα-(4-methylbenzenesulfonyl)-Nε-(N′α-tert-butoxycarbonyl-N′α-methyl-L-phenylalanyl)-L-lysine]	3.8	–
Cc1ccc(S(=O)(=O)N(CC(C)C)[C@@H](CCCCNC(=O)[C@H](Cc2ccccc2)NC(=O)OCc2ccccc2)C(=O)O)cc1 [Example 31, Nα-Isobutyl-Nα-(4-methylbenzenesulfonyl)-Nε-(N′α-benzyloxycarbonyl-L-phenylalanyl)-L-lysine]	2.3	–
Cc1ccc(S(=O)(=O)N(CC(C)C)C(CCCCNC(=O)C(Cc2ccccc2)NC(=O)OC2CCOC2)C(=O)O)cc1 [Example 80, Nα-Isobutyl-Nα-(4-methylbenzenesulfonyl)-Nε-[N′α-(carbotetrahydro-3-furanyloxy)-L-phenylalanyl]-L-lysine]	1.4	–
Cc1ccc(S(=O)(=O)N(CC(C)C)[C@@H](CCCCNC(=O)[C@H](Cc2ccccc2)NS(=O)(=O)c2cccs2)C(=O)NCCO)cc1 [Example 60, Nα-Isobutyl-Nα-(4-methylbenzenesulfonyl)-Nε-[N′α-(2-thiophenesulfonyl)-L-phenylalanyl]-L-lysine Ethanolamide]	> 300	–
Cc1ccc(S(=O)(=O)N(CC(C)C)[C@H](CO)CCCCNC(=O)[C@H](Cc2ccc(F)cc2)NC(=O)OC(C)(C)C)cc1 [Example 140, (2S,2′S) 2-N-Isobutyl-2-N-(4-methylbenzenesulfonyl)-6-N-(N′α-tert-butoxycarbonyl-S-4-fluorophenylalanyl)-2,6-diaminohexanol]	4.2	–
Cc1ccc(S(=O)(=O)N[C@@H](CO)C(=O)NCCCC[C@@H](C(=O)O)N(CC(C)C)S(=O)(=O)c2ccc(C)cc2)cc1 [Example 32, Nα-Isobutyl-Nα-(4-methylbenzenesulfonyl)-Nε-[N′α-(4-methylbenzenesulfonyl)-L-seryl]-L-lysine]	93	–
Cc1ccc(S(=O)(=O)N(CC(C)C)[C@H](CO)CCCCNC(=O)[C@H](Cc2ccccc2F)NC(=O)OC(C)(C)C)cc1 [Example 138, (2S,2′S) 2-N-Isobutyl-2-N-(4-methylbenzenesulfonyl)-6-N-(N′α-tert-butoxycarbonyl-S-2-fluorophenylalanyl)-2,6-diaminohexanol]	10	–
COc1ccc(CN(CC(=O)NCCCC[C@@H](CO)N(CC(C)C)S(=O)(=O)c2ccc(C)cc2)c2ccccc2)cc1 [Example 175, (2S) 2-N-Isobutyl-2-N-(4-methylbenzenesulfonyl)-6-N-[N′α-(4-methoxybenzyl)-N′α-phenylglycyl]-2,6-diaminohexanol]	6.3	–
Cc1ccc(S(=O)(=O)N(CC(C)C)[C@H](CO)CCCCNC(=O)[C@H](Cc2c[nH]c3ccccc23)NS(=O)(=O)c2ccc([N+](=O)[O-])cc2)cc1 [Example 130, (2S,2′S) 2-N-Isobutyl-2-N-(4-methylbenzenesulfonyl)-6-N-[N′α-(4-nitrobenzenesulfonyl)-S-tryptophanyl]-2,6-diaminohexanol]	27	–
CC(C)COC(=O)N[C@@H](Cc1c[nH]c2ccccc12)C(=O)NCCCC[C@@H](CO)N(CC(C)C)S(=O)(=O)c1ccc(N)cc1 [Example 193, (2S,2′S) 2-N-(4-Aminobenzenesulfonyl)-2-N-isobutyl-6-N-(N′α-isobutoxycarbonyl-S-tryptophanyl)-2,6-diaminohexanol]	4.1	–
Cc1ccc(S(=O)(=O)N(CC(C)C)[C@H](CO)CCCCNC(=O)CN(Cc2ccccc2)C(=O)c2ccccc2)cc1 [Example 158, (2S) 2-N-Isobutyl-2-N-(4-methylbenzenesulfonyl)-6-N-(N′α-benzoyl-N′α-benzylglycyl)-2,6-diaminohexanol]	95	–
Cc1ccc(S(=O)(=O)N(CC(C)C)[C@H](CO)CCCCNC(=O)[C@H](Cc2cccc(F)c2)NC(=O)OC(C)(C)C)cc1 [Example 139, (2S,2′S) 2-N-Isobutyl-2-N-(4-methylbenzenesulfonyl)-6-N-(N′α-tert-butoxycarbonyl-S-3-fluorophenylalanyl)-2,6-diaminohexanol]	4.1	–
Cc1ccc(S(=O)(=O)N(CC(C)C)[C@H](CO)CCCCNC(=O)[C@H](Cc2ccccc2)NS(=O)(=O)c2ccc(C(F)(F)F)cc2)cc1 [Example 127, (2S,2′S) 2-N-Isobutyl-2-N-(4-methylbenzenesulfonyl)-6-N-[N′α-(4-trifluoromethylbenzenesulfonyl)-S-phenylalanyl]-2,6-diaminohexanol]	164	–
Cc1ccc(S(=O)(=O)N[C@@H](CC2CCCCC2)C(=O)NCCCC[C@@H](C(=O)O)N(CC(C)C)S(=O)(=O)c2ccc(C)cc2)cc1 [Example 33, Nα-Isobutyl-Nα-(4-methylbenzenesulfonyl)-Nε-[N′α-(4-methylbenzenesulfonyl)-L-cyclohexylalanyl]-L-lysine]	3.2	–
Cc1ccc(S(=O)(=O)N(CC(C)C)[C@H](CO)CCCCNC(=O)[C@H](Cc2c[nH]c3ccccc23)NC(=O)OCC(C)C)cc1 [Example 192, (2S,2′S) 2-N-Isobutyl-2-N-(4-methylbenzenesulfonyl)-6-N-(N′α-isobutoxycarbonyl-S-tryptophanyl)-2,6-diaminohexanol]	4.5	–
CC(=O)N[C@@H](Cc1ccccc1)C(=O)NCCCC[C@@H](C(=O)O)N(CC(C)C)S(=O)(=O)c1ccc(C)cc1 [Example 30, Nα-Isobutyl-Nα-(4-methylbenzenesulfonyl)-Nε-(N′α-acetyl-L-phenylalanyl)-L-lysine]	0.483	–
Nα-Isobutyl-Nα-(4-methylbenzenesulfonyl)-Nε-[N′α-(4-bromobenzenesulfonyl)-L-phenylalanyl]-L-lysine [Example 20]	–	Ki (Anti-protease activity of Ne-amino acid substituted L-lysine derivatives and analogs of formula I, read-out: Ki): 19 nM
